One may read the inhibition as the relative decrease from the control value, in per cent.

Among the data in patent US9187471B2, “Pyrido [4,3-b] indole and pyrido [3,4-b] indole derivatives and methods of use” (Medivation Technologies, Inc., priority 2010, dated 2015) are inhibition values, retold here.

The target of experiment [1] is T1, human recombinant histamine H1 receptor (Homo sapiens, UniProt P35367).
T1 construct: expressed in transfected cells; host or cells: CHO-K1
Kind of experiment: Histamine H1 radioligand binding ([3H]Pyrilamine). The note with it: read-out: Histamine H1 Binding (1 μM), percent inhibition of specific binding; compound at 1 μM; 1.2 nM [3H]Pyrilamine. The method in brief: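 Results expressed as percent inhibition of specific [3H]pyrilamine binding, counted on filters after washing. Receptor source: CHO-K1 cells expressing recombinant human H1, in modified Tris-HCl buffer (50 mM, pH 7.4; 2 mM MgCl2, 100 mM NaCl, 250 mM sucrose). 1 μM pyrilamine defined non-specific binding.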

The target in experiment [2] is T2, human recombinant dopamine D2L receptor (Homo sapiens, UniProt P14416).
T2 construct: expressed in transfected cells; host or cells: CHO
Kind of experiment: Dopamine D2L radioligand binding ([3H]Spiperone). The note with it: 0.16 nM [3H]Spiperone; for inhibition at 1 µM: read-out: Dopamine D2L (1 μM), percent inhibition of specific binding, compound at 1 μM; for inhibition at 0.1 µM: read-out: Dopamine D2L (0.1 μM), percent inhibition of specific binding, compound at 0.1 μM. Here is the method: Non-specific binding was estimated in the presence of 10 μM Haloperidol. Receptor proteins were filtered and washed, the filters were then counted to determine [^3H]Spiperone specifically bound.

In experiment [3] the target is T3, human recombinant serotonin (5-Hydroxytryptamine) 5-HT2A receptor (Homo sapiens, UniProt P28223).
T3 construct: expressed in transfected cells; host or cells: CHO-K1
In words: Serotonin 5-HT2A radioligand binding ([3H]Ketanserin). The note with it: compound at 0.1 μM; read-out: Inhibition of ligand binding, Serotonin 5-HT2A (percent inhibition of specific binding). Here is the method:
Compounds of the invention were incubated with 0.5 nM [^3H]Ketanserin for 60 min at 25° C. Non-specific binding was estimated in the presence of 1 μM Mianserin. Receptor proteins were filtered and washed, the filters were then counted to determine [^3H]Ketanserin specifically bound.

The target in experiment [4] is T4, human recombinant serotonin (5-Hydroxytryptamine) 5-HT6 receptor (Homo sapiens, UniProt P50406).
T4 construct: expressed in transfected cells; host or cells: HeLa
In words: Serotonin 5-HT6 radioligand binding ([3H]LSD). The note with it: compound at 0.1 μM; read-out: Inhibition of ligand binding, Serotonin 5-HT6 (percent inhibition of specific binding). An excerpt:
Receptor proteins were filtered and washed, the filters were then counted to determine [3H]LSD specifically bound.

T4 sequence (P50406 whole entry): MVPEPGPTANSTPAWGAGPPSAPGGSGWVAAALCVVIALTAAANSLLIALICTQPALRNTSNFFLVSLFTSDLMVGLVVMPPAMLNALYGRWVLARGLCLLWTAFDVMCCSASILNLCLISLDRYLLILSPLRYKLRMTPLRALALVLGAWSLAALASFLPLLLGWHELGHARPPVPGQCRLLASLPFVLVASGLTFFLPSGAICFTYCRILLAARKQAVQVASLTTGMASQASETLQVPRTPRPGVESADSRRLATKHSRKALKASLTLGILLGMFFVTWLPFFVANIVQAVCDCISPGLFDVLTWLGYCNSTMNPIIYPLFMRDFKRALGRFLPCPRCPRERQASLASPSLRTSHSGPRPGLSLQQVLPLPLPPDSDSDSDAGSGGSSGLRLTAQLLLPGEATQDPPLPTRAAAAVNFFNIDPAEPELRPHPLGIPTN
T3 sequence (P28223 whole entry): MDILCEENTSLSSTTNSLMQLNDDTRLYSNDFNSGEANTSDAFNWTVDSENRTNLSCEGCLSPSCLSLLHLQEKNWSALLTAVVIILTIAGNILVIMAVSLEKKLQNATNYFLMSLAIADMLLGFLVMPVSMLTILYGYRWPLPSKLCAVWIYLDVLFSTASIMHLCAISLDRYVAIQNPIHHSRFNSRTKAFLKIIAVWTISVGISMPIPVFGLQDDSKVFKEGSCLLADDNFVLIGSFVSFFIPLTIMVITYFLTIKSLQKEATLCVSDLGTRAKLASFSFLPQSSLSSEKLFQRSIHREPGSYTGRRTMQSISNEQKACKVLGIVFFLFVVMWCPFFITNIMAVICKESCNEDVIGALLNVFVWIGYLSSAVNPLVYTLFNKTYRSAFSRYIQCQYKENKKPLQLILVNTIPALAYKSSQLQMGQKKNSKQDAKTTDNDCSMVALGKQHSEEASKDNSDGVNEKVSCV
T1 sequence (P35367 whole entry): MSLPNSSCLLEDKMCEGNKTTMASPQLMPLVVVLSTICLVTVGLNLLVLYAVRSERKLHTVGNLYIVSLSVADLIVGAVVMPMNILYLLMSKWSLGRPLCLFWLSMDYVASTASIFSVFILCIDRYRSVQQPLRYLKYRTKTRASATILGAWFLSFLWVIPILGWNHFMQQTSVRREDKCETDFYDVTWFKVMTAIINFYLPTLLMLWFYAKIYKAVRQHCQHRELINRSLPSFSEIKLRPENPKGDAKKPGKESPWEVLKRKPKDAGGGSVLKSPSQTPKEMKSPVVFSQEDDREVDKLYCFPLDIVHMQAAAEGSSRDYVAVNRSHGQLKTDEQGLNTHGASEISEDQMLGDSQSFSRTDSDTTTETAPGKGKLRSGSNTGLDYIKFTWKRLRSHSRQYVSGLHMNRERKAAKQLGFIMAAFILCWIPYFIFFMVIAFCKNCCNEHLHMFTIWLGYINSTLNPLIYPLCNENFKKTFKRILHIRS
T2 sequence (P14416 whole entry): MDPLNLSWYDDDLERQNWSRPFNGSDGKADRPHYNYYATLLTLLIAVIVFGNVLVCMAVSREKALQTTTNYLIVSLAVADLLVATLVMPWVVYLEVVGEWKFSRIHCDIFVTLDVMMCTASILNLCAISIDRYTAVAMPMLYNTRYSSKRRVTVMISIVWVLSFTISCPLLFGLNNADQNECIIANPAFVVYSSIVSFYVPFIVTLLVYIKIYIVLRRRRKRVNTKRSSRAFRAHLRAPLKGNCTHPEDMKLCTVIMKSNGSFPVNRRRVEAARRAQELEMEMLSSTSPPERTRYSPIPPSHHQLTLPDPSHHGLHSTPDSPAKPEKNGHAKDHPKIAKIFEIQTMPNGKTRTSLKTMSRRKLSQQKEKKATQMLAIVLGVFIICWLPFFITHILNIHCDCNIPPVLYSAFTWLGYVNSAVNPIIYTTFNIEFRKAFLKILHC

As to `CNC(=O)c1ccc(-c2cscc2-n2c3c(c4cc(C)ccc42)CN(C)CC3)cn1` [Compound No. 73], the inhibition at 1 µM in experiment [1] is 20%; in experiment [2], 21%. For the same compound, the results for the inhibition at 0.1 µM in experiment [3] and in experiment [4] were 64% and 21%, respectively.
Consider `Cc1ccc2c(c1)c1c(n2-c2cscc2-c2cc3ccccc3s2)CCN(C)C1` [Compound No. 151], for which the inhibition at 1 µM in experiment [1] was found to be 11%. The values for the inhibition at 0.1 µM in experiment [2], in experiment [3] and in experiment [4] were 1%, 32% and 28%, respectively.
In the case of `CNC(=O)c1cc(-n2c3c(c4cc(C)ccc42)CN(C)CC3)cs1` [Compound No. 78], the inhibition at 1 µM was determined as 13% in experiment [1] and 1% in experiment [2]. In addition, the inhibition at 0.1 µM in experiment [3] worked out at 59%; in experiment [4], 17%.
On the same counts, the results for `Cc1csc(-c2cccc(-n3c4c(c5cc(C)ccc53)CN(C)CC4)c2)c1` [Compound No. 63, 2,8-dimethyl-5-(3-(4-methylthiophen-2-yl)phenyl)-2,3,4,5-tetrahydro-1H-pyrido[4,3-b]indole] are 31%, 19%, 101% and 5%.
Regarding `Cc1cc(C)c2c(c1)c1c(n2-c2ccc3ncccc3c2)CCN(C)C1` [Compound 48], the inhibition at 1 µM was 4% in experiment [1] and 41% in experiment [2]. For the same compound, the inhibition at 0.1 µM in experiment [3] is 13%; in experiment [4], 20%.
On the same counts, the results for `Cc1ccc2c(c1)c1c(n2-c2cccc(-c3ccc4c(ccn4C)c3)c2)CCN(C)C1` [Compound 53, 2,8-dimethyl-5-(3-(1-methyl-1H-indol-5-yl)phenyl)-2,3,4,5-tetrahydro-1H-pyrido[4,3-b]indole] are 18%, 13%, 89% and 11%.
On the same counts, the results for `Cc1ccc2c(c1)c1c(n2-c2ccccc2-c2cnc(N(C)C)nc2)CCN(C)C1` [Compound 31] are 3%, 12%, 27% and 20%.
Consider `Cc1ccc2c(c1)c1c(n2-c2cccc(-c3ccc(C)nc3)c2)CCN(C)C1` [Compound 60, 2,8-dimethyl-5-(3-(6-methylpyridin-3-yl)phenyl)-2,3,4,5-tetrahydro-1H-pyrido[4,3-b]indole], for which the inhibition at 1 µM in experiment [1] was 32%; in experiment [2] it was 24%. In addition, the inhibition at 0.1 µM in experiment [3] is 102%; in experiment [4], 3%.
Turning to `CNC(=O)c1cccc(-c2cscc2-n2c3c(c4cc(C)ccc42)CN(C)CC3)c1` [Compound No. 154], the inhibition at 1 µM in experiment [1] came out at 20%. The inhibition at 0.1 µM in experiment [2] is 1%; in experiment [3], 83%; in experiment [4], 7%.
For `Cc1ccc2c(c1)c1c(n2-c2ccc3c(c2)CCN(C=O)C3)CCN(C)C1` [Compound No. 77, 6-(2,8-dimethyl-1,2,3,4-tetrahydro-pyrido[4,3-b]indol-5-yl)-3,4-dihydro-1H-isoquinoline-2-carbaldehyde], the inhibition at 1 µM in experiment [1] is 35%; in experiment [2], 14%. For the same compound, the inhibition at 0.1 µM in experiment [3] came out at 36%; in experiment [4], 5%.
For `Cc1ccc2c(c1)c1c(n2-c2cscc2-c2ccc(F)nc2)CCN(C)C1` [Compound 35], the inhibition at 1 µM in experiment [1] was determined as 3%; in experiment [2], 17%. Besides, the inhibition at 0.1 µM is 82% in experiment [3] and 21% in experiment [4].
In the case of `CNC(=O)c1ccc(-c2cccc(-n3c4c(c5cc(C)ccc53)CN(C)CC4)c2)cn1` [Compound No. 75, 5-(3-(2,8-dimethyl-3,4-dihydro-1H-pyrido[4,3-b]indol-5(2H)-yl)phenyl)-N-methylpicolinamide], the inhibition at 1 µM in experiment [1] is 19%; in experiment [2] it was 18%. Moreover, the inhibition at 0.1 µM in experiment [3] turned out to be 55%; in experiment [4] it was 4%.
As for `Cc1ccc2c(c1)c1c(n2-c2cccc(-c3ccc(S(N)(=O)=O)cc3)c2)CCN(C)C1` [Compound No. 158, 3′-(2,8-dimethyl-3,4-dihydro-1H-pyrido[4,3-b]indol-5(2H)-yl)biphenyl-4-sulfonamide], the inhibition at 1 µM in experiment [1] stood at 1%. In addition, the inhibition at 0.1 µM came to 1% in experiment [2], 91% in experiment [3] and 14% in experiment [4].
For the compound `Cc1ccc2c(c1)c1c(n2-c2cscc2-c2cncc3ccccc23)CCN(C)C1` [Compound 34], the inhibition at 1 µM came out at 6% in experiment [1] and 31% in experiment [2]. The inhibition at 0.1 µM is 57% in experiment [3] and 11% in experiment [4].
`Cc1ccc2c(c1)c1c(n2-c2ccc(-c3ccc4c(ccn4C)c3)cn2)CCN(C)C1` [Compound No. 136, 2,8-dimethyl-5-(5-(1-methyl-1H-indol-5-yl)pyridin-2-yl)-2,3,4,5-tetrahydro-1H-pyrido[4,3-b]indole]: the inhibition at 1 µM came out at 5% in experiment [1] and 15% in experiment [2]. The inhibition at 0.1 µM in experiment [3] was determined as 98%; in experiment [4], 10%.
On the same counts, the results for `Cc1ccc2c(c1)c1c(n2-c2ccccc2-c2ccc(C)nc2)CCN(C)C1` [Compound 59, 2,8-dimethyl-5-(2-(6-methylpyridin-3-yl)phenyl)-2,3,4,5-tetrahydro-1H-pyrido[4,3-b]indole] are 27%, 13%, 47% and 17%.
With `Cc1cc(C)c2c(c1)c1c(n2-c2cccc3ncccc23)CCN(C)C1` [Compound 47], the inhibition at 1 µM in experiment [1] is 42%; in experiment [2], 19%. The results for the inhibition at 0.1 µM in experiment [3] and in experiment [4] were 1% and 18%, respectively.
Take `Cc1csc(-c2ccccc2-n2c3c(c4cc(C)ccc42)CN(C)CC3)c1` [Compound 36]: the inhibition at 1 µM is 16% in experiment [1] and 22% in experiment [2]. Further, the inhibition at 0.1 µM was 80% in experiment [3] and 13% in experiment [4].
On the same counts, the results for `Cc1ccc2c(c1)c1c(n2-c2cccc(-c3ccc(S(C)(=O)=O)cc3)c2)CCN(C)C1` [Compound No. 131, 2,8-dimethyl-5-(4′-(methylsulfonyl)biphenyl-3-yl)-2,3,4,5-tetrahydro-1H-pyrido[4,3-b]indole] are 20%, 4%, 74% and -3%.
On the same counts, the results for `Cc1ccc2c(c1)c1c(n2-c2ccc(-c3cnn(C)c3)cn2)CCN(C)C1` [Compound No. 134, 2,8-dimethyl-5-(5-(1-methyl-1H-pyrazol-4-yl)pyridin-2-yl)-2,3,4,5-tetrahydro-1H-pyrido[4,3-b]indole] are 6%, 1%, 88% and -2%.
On the same counts, the results for `Cc1ccc2c(c1)c1c(n2-c2ccc(-c3sccc3C)cn2)CCN(C)C1` [Compound No. 148, 2,8-dimethyl-5-(5-(3-methylthiophen-2-yl)pyridin-2-yl)-2,3,4,5-tetrahydro-1H-pyrido[4,3-b]indole] are 5%, 17%, 95% and 5%.
